Laboratory results reported in patent US6737383B1, “Herbicidal oxadiazolidines” (priority 1999, dated 2004).

Key:
duck salad = experiment: Test B flood test duck salad; assay type: in vivo, Heteranthera limosa
How it was run: (§1)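 Flood test on plants grown to the 2-leaf stage; treated plants kept in greenhouse twelve to sixteen days, then visually rated against controls on a 0 (no effect) to 10 (complete control) scale.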

corn = experiment: Test B pre/postemergence corn; assay type: in vivo, Zea mays
How it was run: (§2)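 Herbicidal effect was estimated by eye on a ten-point control scale after plants spent twelve to sixteen days in a greenhouse following soil or foliar treatment. Foliar sprays targeted plants at one to four leaves; all doses were formulated in a non-phytotoxic solvent with surfactant.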

wheat = experiment: Test B pre/postemergence wheat; assay type: in vivo, Triticum aestivum
How it was run: as §2

surinam grass = experiment: Test B pre/postemergence surinam grass; assay type: in vivo, Brachiaria decumbens
How it was run: as §2

blackgrass = experiment: Test B pre/postemergence blackgrass; assay type: in vivo, Alopecurus myosuroides
How it was run: as §2

morningglory = experiment: Test B pre/postemergence morningglory; assay type: in vivo, Ipomoea hederacea
How it was run: as §2

giant foxtail = experiment: Test B pre/postemergence giant foxtail; assay type: in vivo, Setaria faberii
How it was run: as §2

velvetleaf = experiment: Test B pre/postemergence velvetleaf; assay type: in vivo, Abutilon theophrasti
How it was run: as §2

rice = experiment: Test B flood test rice; assay type: in vivo, Oryza sativa
How it was run: as §1

crabgrass = experiment: Test B pre/postemergence crabgrass; assay type: in vivo, Digitaria sanguinalis
How it was run: as §2

purple nutsedge = experiment: Test B pre/postemergence purple nutsedge; assay type: in vivo, Cyperus rotundus
How it was run: as §2

bedstraw = experiment: Test B pre/postemergence bedstraw; assay type: in vivo, Galium aparine
How it was run: as §2

wild oat = experiment: Test B pre/postemergence wild oat; assay type: in vivo, Avena fatua
How it was run: as §2

cocklebur = experiment: Test B pre/postemergence cocklebur; assay type: in vivo, Xanthium strumarium
How it was run: as §2

smallflower flatsedge = experiment: Test B flood test smallflower flatsedge; assay type: in vivo, Cyperus difformis
How it was run: as §1

bamyardgrass = experiment: Test B flood test barnyardgrass; assay type: in vivo, Echinochloa crus-galli
How it was run: as §1

[1] = Rate 62 g/ha, headed Pre-emergence (flood test species), scale 0 to 10 (0 no effect, 10 complete control)
[2] = Rate 125 g/ha, Pre-emergence, flood test species, scale 0 to 10 where 0 is no effect and 10 is complete control
[3] = Rate 250 g/ha, Pre-emergence, flood-test species, scale 0 to 10, 0 is no effect, 10 is complete control
[4] = Rate 500 g/ha, Pre-emergence, flood test species, scale 0 to 10 (0 no effect, 10 complete control)
[5] = Preemergence, Rate 62 g/ha, scale of 0 to 10 where 0 is no effect and 10 is complete control
[6] = Preemergence, Rate 250 g/ha, scale of 0 to 10 where 0 is no effect and 10 is complete control
[7] = Preemergence, Rate 500 g/ha, scale of 0 to 10 where 0 is no effect and 10 is complete control
[8] = Rate 62 g/ha, Postemergence, scale 0 to 10, 0 no effect, 10 complete control
[9] = Rate 125 g/ha, Postemergence, scale of 0 to 10 where 0 is no effect and 10 is complete control
[10] = Rate 125 g/ha, Preemergence, scale of 0 to 10 where 0 is no effect and 10 is complete control
[11] = Rate 250 g/ha, Postemergence, scale of 0 to 10 where 0 is no effect and 10 is complete control
[12] = Rate 500 g/ha, Postemergence, scale 0 to 10, 0 no effect, 10 complete control

CC(C)N(C(=O)n1oc(=O)n(C2CCCC2)c1=O)c1ccc(Cl)cc1 [Compound 282]
Ducksalad plant response rating (duck salad; [1]): 0 | Ducksalad plant response rating (duck salad; [2]): 0 | Ducksalad plant response rating (duck salad; [3]): 0 | Ducksalad plant response rating (duck salad; [4]): 0 | Corn plant response rating (corn; [5]): 0 | Corn plant response rating (corn; [6]): 0 | Plant response rating, Corn (corn; [7]): 0 | Corn plant response rating (corn; [8]): 0 | Corn plant response rating (corn; [9]): 0 | Corn plant response rating (corn; [10]): 0 | Plant response rating, Corn (corn; [11]): 0 | Corn plant response rating (corn; [12]): 0 | Wheat plant response rating (wheat; [5]): 0 | Wheat plant response rating (wheat; [6]): 0 | Plant response rating, Wheat (wheat; [7]): 0 | Wheat plant response rating (wheat; [8]): 0 | Wheat plant response rating (wheat; [9]): 0 | Wheat plant response rating (wheat; [10]): 0 | Plant response rating, Wheat (wheat; [11]): 0 | Wheat plant response rating (wheat; [12]): 0 | B. signalgrass plant response rating (surinam grass; [5]): 0 | B. signalgrass plant response rating (surinam grass; [6]): 2 | Plant response rating, B. signalgrass (surinam grass; [7]): 7 | B. signalgrass plant response rating (surinam grass; [8]): 0 | B. signalgrass plant response rating (surinam grass; [9]): 0 | B. signalgrass plant response rating (surinam grass; [10]): 1 | Plant response rating, B. signalgrass (surinam grass; [11]): 0 | B. signalgrass plant response rating (surinam grass; [12]): 2 | Blackgrass plant response rating (blackgrass; [5]): 0 | Blackgrass plant response rating (blackgrass; [6]): 4 | Plant response rating, Blackgrass (blackgrass; [7]): 8 | Blackgrass plant response rating (blackgrass; [8]): 0 | Blackgrass plant response rating (blackgrass; [9]): 2 | Blackgrass plant response rating (blackgrass; [10]): 1 | Plant response rating, Blackgrass (blackgrass; [11]): 5 | Blackgrass plant response rating (blackgrass; [12]): 8 | Morningglory plant response rating (morningglory; [5]): 0 | Morningglory plant response rating (morningglory; [6]): 0 | Plant response rating, Morningglory (morningglory; [7]): 0 | Morningglory plant response rating (morningglory; [8]): 6 | Morningglory plant response rating (morningglory; [9]): 6 | Morningglory plant response rating (morningglory; [10]): 0 | Plant response rating, Morningglory (morningglory; [11]): 7 | Morningglory plant response rating (morningglory; [12]): 9 | Giant foxtail plant response rating (giant foxtail; [5]): 8 | Giant foxtail plant response rating (giant foxtail; [6]): 10 | Plant response rating, Giant foxtail (giant foxtail; [7]): 10 | Giant foxtail plant response rating (giant foxtail; [8]): 0 | Giant foxtail plant response rating (giant foxtail; [9]): 0 | Giant foxtail plant response rating (giant foxtail; [10]): 8 | Plant response rating, Giant foxtail (giant foxtail; [11]): 0 | Giant foxtail plant response rating (giant foxtail; [12]): 2 | Velvetleaf plant response rating (velvetleaf; [5]): 0 | Velvetleaf plant response rating (velvetleaf; [6]): 0 | Plant response rating, Velvetleaf (velvetleaf; [7]): 0 | Velvetleaf plant response rating (velvetleaf; [8]): 0 | Velvetleaf plant response rating (velvetleaf; [9]): 0 | Velvetleaf plant response rating (velvetleaf; [10]): 0 | Plant response rating, Velvetleaf (velvetleaf; [11]): 3 | Velvetleaf plant response rating (velvetleaf; [12]): 3 | Rice plant response rating (rice; [1]): 0 | Rice plant response rating (rice; [2]): 0 | Rice plant response rating (rice; [3]): 0 | Rice plant response rating (rice; [4]): 0 | Crabgrass plant response rating (crabgrass; [5]): 1 | Crabgrass plant response rating (crabgrass; [6]): 6 | Plant response rating, Crabgrass (crabgrass; [7]): 8 | Crabgrass plant response rating (crabgrass; [8]): 0 | Crabgrass plant response rating (crabgrass; [9]): 0 | Crabgrass plant response rating (crabgrass; [10]): 1 | Plant response rating, Crabgrass (crabgrass; [11]): 0 | Crabgrass plant response rating (crabgrass; [12]): 0 | Nutsedge plant response rating (purple nutsedge; [5]): 0 | Nutsedge plant response rating (purple nutsedge; [6]): 0 | Nutsedge plant response rating (purple nutsedge; [8]): 0 | Nutsedge plant response rating (purple nutsedge; [9]): 0 | Nutsedge plant response rating (purple nutsedge; [10]): 0 | Plant response rating, Nutsedge (purple nutsedge; [11]): 0 | Nutsedge plant response rating (purple nutsedge; [12]): 0 | Bedstraw plant response rating (bedstraw; [5]): 0 | Bedstraw plant response rating (bedstraw; [6]): 2 | Plant response rating, Bedstraw (bedstraw; [7]): 2 | Bedstraw plant response rating (bedstraw; [8]): 5 | Bedstraw plant response rating (bedstraw; [9]): 5 | Plant response rating, Bedstraw (bedstraw; [11]): 7 | Bedstraw plant response rating (bedstraw; [12]): 8 | Wild oats plant response rating (wild oat; [5]): 0 | Wild oats plant response rating (wild oat; [6]): 5 | Plant response rating, Wild oats (wild oat; [7]): 7 | Wild oats plant response rating (wild oat; [8]): 0 | Wild oats plant response rating (wild oat; [9]): 0 | Plant response rating, Wild oats (wild oat; [11]): 0 | Wild oats plant response rating (wild oat; [12]): 0 | Plant response rating, Cocklebur (cocklebur; [7]): 0 | Cocklebur plant response rating (cocklebur; [8]): 0 | Cocklebur plant response rating (cocklebur; [9]): 0 | Cocklebur plant response rating (cocklebur; [10]): 0 | Plant response rating, Cocklebur (cocklebur; [11]): 2 | Cocklebur plant response rating (cocklebur; [12]): 2 | S. Flatsedge plant response rating (smallflower flatsedge; [1]): 0 | S. Flatsedge plant response rating (smallflower flatsedge; [2]): 0 | S. Flatsedge plant response rating (smallflower flatsedge; [3]): 2 | S. Flatsedge plant response rating (smallflower flatsedge; [4]): 4 | Barnyardgrass plant response rating (bamyardgrass; [1]): 7 | Barnyardgrass plant response rating (bamyardgrass; [2]): 7 | Barnyardgrass plant response rating (bamyardgrass; [3]): 9 | Barnyardgrass plant response rating (bamyardgrass; [4]): 9
